Key:
[1] = molecular target: T1, Fatty-acid amide hydrolase 1 (Mus musculus, UniProt O08914); experiment: Inhibitory potency of Fatty-acid amide hydrolase with Mouse brain membrane
T1 sequence (O08914 whole entry): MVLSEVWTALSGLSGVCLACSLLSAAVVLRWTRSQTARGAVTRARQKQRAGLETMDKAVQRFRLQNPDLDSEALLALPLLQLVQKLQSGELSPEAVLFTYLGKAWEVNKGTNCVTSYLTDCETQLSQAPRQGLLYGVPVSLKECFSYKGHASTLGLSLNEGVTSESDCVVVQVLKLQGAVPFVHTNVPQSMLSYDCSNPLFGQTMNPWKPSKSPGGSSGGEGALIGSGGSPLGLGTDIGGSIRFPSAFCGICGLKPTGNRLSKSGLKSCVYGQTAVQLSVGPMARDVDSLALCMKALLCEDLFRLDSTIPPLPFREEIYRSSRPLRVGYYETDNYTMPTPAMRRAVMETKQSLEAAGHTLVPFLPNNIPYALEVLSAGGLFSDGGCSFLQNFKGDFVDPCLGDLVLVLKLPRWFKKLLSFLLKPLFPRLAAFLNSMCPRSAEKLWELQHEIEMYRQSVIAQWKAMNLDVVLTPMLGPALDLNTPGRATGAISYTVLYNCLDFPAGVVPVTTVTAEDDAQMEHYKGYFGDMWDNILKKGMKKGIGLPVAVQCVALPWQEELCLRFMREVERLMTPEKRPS

[2] = molecular target: T1, Fatty-acid amide hydrolase 1; experiment: Inhibitory potency of Fatty-acid amide hydrolase with Mouse brain membrane in the presence of PMSF
[3] = molecular target: Cannabinoid receptor 1 (Mus musculus, UniProt P47746); experiment: Binding affinity towards Cannabinoid receptor 1 was determined using [3H]-CP- cannabinoid as radioligand with mouse brain membrane in the presence of PMSF
[4] = molecular target: T2, Fatty-acid amide hydrolase 1 (Rattus norvegicus, UniProt P97612); experiment: Inhibitory potency of Fatty-acid amide hydrolase with rat brain membrane
T2 sequence (P97612 whole entry): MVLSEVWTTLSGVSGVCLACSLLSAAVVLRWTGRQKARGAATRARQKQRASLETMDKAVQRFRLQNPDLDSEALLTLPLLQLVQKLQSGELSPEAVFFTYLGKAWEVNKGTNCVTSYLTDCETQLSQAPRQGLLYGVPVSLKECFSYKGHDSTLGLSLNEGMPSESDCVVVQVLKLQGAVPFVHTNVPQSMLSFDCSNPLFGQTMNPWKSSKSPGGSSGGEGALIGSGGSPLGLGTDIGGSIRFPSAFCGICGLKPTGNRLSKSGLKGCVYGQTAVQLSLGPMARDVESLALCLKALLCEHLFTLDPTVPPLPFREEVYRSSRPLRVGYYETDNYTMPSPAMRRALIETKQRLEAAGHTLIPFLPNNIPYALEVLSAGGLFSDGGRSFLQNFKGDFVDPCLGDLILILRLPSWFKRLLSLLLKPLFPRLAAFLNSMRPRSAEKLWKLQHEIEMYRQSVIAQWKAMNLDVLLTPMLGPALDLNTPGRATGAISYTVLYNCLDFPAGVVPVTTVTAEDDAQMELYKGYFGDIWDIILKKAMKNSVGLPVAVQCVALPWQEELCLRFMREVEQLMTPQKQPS

[5] = molecular target: Cannabinoid receptor 1 (Rattus norvegicus, UniProt P20272); experiment: Binding affinity towards Cannabinoid receptor 1 was determined using [3H]-CP- cannabinoid as radioligand with rat brain membrane
Cannabinoid receptor 1 (Rattus norvegicus, UniProt P20272), sequence (P20272 whole entry): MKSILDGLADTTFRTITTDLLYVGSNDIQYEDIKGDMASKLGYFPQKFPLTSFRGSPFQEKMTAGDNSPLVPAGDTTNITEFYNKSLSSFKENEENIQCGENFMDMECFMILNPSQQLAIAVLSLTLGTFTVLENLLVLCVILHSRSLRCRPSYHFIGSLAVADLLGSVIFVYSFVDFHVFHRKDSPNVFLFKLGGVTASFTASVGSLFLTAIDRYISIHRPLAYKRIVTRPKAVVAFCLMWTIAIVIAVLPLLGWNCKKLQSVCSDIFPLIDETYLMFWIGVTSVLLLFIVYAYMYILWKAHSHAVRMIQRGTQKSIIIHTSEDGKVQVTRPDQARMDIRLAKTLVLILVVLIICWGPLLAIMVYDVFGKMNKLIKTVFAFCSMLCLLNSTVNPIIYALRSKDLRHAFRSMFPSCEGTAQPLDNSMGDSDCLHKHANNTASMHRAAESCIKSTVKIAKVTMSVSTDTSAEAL

Cannabinoid receptor 1 (Mus musculus, UniProt P47746), sequence (P47746 whole entry): as the sequence (P20272 whole entry) above, with E95D counted along it

Question: For `CCCCC/C=C\C/C=C\C/C=C\C/C=C\CCCCS(=O)(=O)F`, which IC50 [1] is on record?
Answer: Its IC50 is 0.11 nM.

Question: With `CCCCC/C=C\C/C=C\C/C=C\C/C=C\CCCCS(=O)(=O)NCCO` as the compound, how does the IC50 [2] read?
Answer: Its IC50 is ~10000 nM.

Question: What about the IC50 [3] of the same compound?
Answer: Its IC50 is > 100000 nM.

Question: With `CCCCCCCCCCCCS(=O)(=O)F` [DODECANESULFONYL FLUORIDE] as the compound, how does the IC50 [1] read?
Answer: Its IC50 is 2 nM.

Question: And the IC50 [4]?
Answer: The IC50 was 3 nM.

Question: And the IC50 [5]?
Answer: The IC50 was 18 nM.

Source: ChEMBL document CHEMBL1136242, “Arachidonylsulfonyl derivatives as cannabinoid CB1 receptor and fatty acid amide hydrolase inhibitors” (Bioorg Med Chem Lett, 2003)
